Measurements taken from US7341836B2, “Modified cyclic nucleotide gated ion channels” (The Regents of the University of Colorado, priority 2001, dated 2008).
Entries after “also recorded” stand apart in the source; their conditions may differ.

How the values were obtained:
[1] = system: PDE activity in GH4C1 cells; experiment: Effect of PDE inhibitors, forskolin and VIP on cAMP levels (Ca2+ influx through CNG channels); format: cell-based, rat; conditions: for d(ΔF/F0)/dt: basal cAMP, inhibitor concentration (μM); for d(ΔF/F0)/dt / Ca2+ influx induced by the PDE inhibitor alone (basal cAMP): C460W/E583M channels; for Ca2+ influx induced by the PDE inhibitor alone (basal cAMP): no AC stimulation; for effect on forskolin-induced Ca2+ influx / PDE activity: Δ61-90/C460W/E583M channels, 10 μM forskolin
In short: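 GH4C1 rat pituitary cells expressing high-affinity C460W/E583M or Δ61-90/C460W/E583M CNG channels (adenovirus), with 1 μM nimodipine at time zero; cAMP read as Ca2+ influx rate d(ΔF/F0)/dt. PDE inhibitors or 100 μM IBMX added at 60 s, then 10 μM forskolin or 100 nM VIP at 240 s; mean±SE.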

[2] = system: PDE activity in HEK-293 cells; experiment: Effect and in vivo KI of PDE inhibitors on forskolin-induced Ca2+ influx through CNG channels; conditions: for effect on forskolin-induced Ca2+ influx: 1 μM forskolin, IBMX 10 or 100 μM, RO-20-1724 10 μM; for time to complete equilibration across the plasma membrane of HEK-293 cells: human, pH 7.4
Procedure: Next, experiments were conducted to pharmacologically identify the PDE type(s) that regulates cAMP levels near CNG channels. The C460W/E583M channels were used to monitor forskolin-stimulated cAMP accumulation in the presence and absence of a series of PDE inhibitors. […] In these experiments, inhibitor concentrations were used at which specific PDE types should be inhibited.
This required developing a quantitative framework to assess the relationship between cAMP synthesis, hydrolysis, and redistribution throughout the cell. Thus, the following formalism was adopted:
[formula] where C is the steady-state rate of cAMP synthesis by AC, Vmax is the maximal rate of cAMP hydrolysis, Km is the Michaelis constant for PDE, and kf is the rate constant of cAMP flux out of the microdomain. In order to estimate KI for the PDE inhibitors two assumptions were made. First, it was assumed that at low levels of AC stimulation and PDE inhibition, the concentration of local cAMP is low and diffusion of cAMP out of the microdomain is negligible. Second, the assumption was made that cAMP levels reach steady-state shortly after AC stimulation (i.e., equal rates of synthesis and hydrolysis). With these assumptions, Eq. 4 can be simplified to:
[formula] […] At low cAMP concentrations (<K1/2 for the channel), the cAMP concentration is proportional to the square root of the Ca^2+ influx rate (the Hill coefficient for channel activation is approximately 2). Thus, KI, can be estimated using a linear fit to the square root of the slopes of the fluorescence traces as a function of inhibitor concentration (See, FIG. 11).
Increases in local cAMP concentration activate CNG channels and trigger Ca^2+ entry. Ca^2+ influx was monitored in cell populations using the fluorescent indicator fura-2.
Additions were made by pipetting stock solutions into a stirred cuvette. The solutions were then assayed using an LS-50B spectrofluorimeter (Perkin Elmer). […]
Fluorescence was measured at an excitation wavelength of 380 nm and an emission wavelength of 510 nm. […] The MATLAB software package (MathWorks) was used for curve fitting and simulations.
The C460W/E583M channels were used to monitor forskolin-stimulated cAMP accumulation in the presence and absence of a series of PDE inhibitors. […] In these experiments, inhibitor concentrations were used at which specific PDE types should be inhibited.
[formula] where C is the steady-state rate of cAMP synthesis by AC, Vmax is the maximal rate of cAMP hydrolysis, Km is the Michaelis constant for PDE, and kf is the rate constant of cAMP flux out of the microdomain. In order to estimate KI for the PDE inhibitors, two assumptions were made.

PDE I = conditions: cited from earlier work
[3] = C460W/E583M channels, 0.5 μM forskolin, n=4
[4] = FIG. 11, the experiments shown, C460W/E583M channels, 0.5 μM forskolin

| Compound | d(ΔF/F0)/dt [1] [s⁻¹] | slope of ΔF/F0 ([2]; 50 nM rolipram at 0 s, 0.5 μM forskolin at 180 s, C460W/E583M channels) [s⁻¹] | Ki [2, 3] [nM] | effect on forskolin-induced Ca2+ influx ([2]; C460W/E583M channels) | Ki [2, 4] [nM] | Ca2+ influx induced by the PDE inhibitor alone (basal cAMP) [1] | effect on forskolin-induced Ca2+ influx / PDE activity [1] | IC50 (PDE I) [µM] | time to complete equilibration across the plasma membrane of HEK-293 cells [2] [s] | Ki ([2]; Δ61-90/C460W/E583M channels, n=3) [nM] |
| --- | --- | --- | --- | --- | --- | --- | --- | --- | --- | --- |
| CCCCCC[C@@H]([C@@H](C)O)n1cnc2c(N)ncnc21 (racemic) [EHNA] | 0.0029 ± 0.0011 | – | – | – | – | – | – | – | – | – |
| COc1ccc(C2CNC(=O)C2)cc1OC1CCCC1 (stereo not shown) [Rolipram] | 0 | 0.00062 | 70 ± 20 | significantly increased the forskolin-induced Ca^2+ influx | 90 | No RO-20-1724- or rolipram-sensitive PDE was observed | also inhibited PDE activity; also recorded: increase forskolin-induced Ca^2+ influx through CNG channels | > 150 | – | – |
| CC(C)Cn1c(=O)n(C)c(=O)c2[nH]cnc21 [IBMX, 3-isobutyl-1-methylxanthine] | – | – | 11000 ± 2000 | significant forskolin-induced Ca^2+ influx was observed; also recorded: influenced the time course of forskolin-induced Ca^2+ influx | 10000 | induced Ca^2+ influx through CNG channels | significantly inhibited PDE activity; also recorded: increase forskolin-induced Ca^2+ influx through CNG channels | 2 to 3 | < 180 | – |
| CCCCOc1cc(CC2CNC(=O)N2)ccc1OC (stereo not shown) [RO-20-1724, 4-(3-butoxy-4-methoxybenzyl)-2-imidazolidinone] | 0 | – | 130 ± 20 | significant forskolin-induced Ca^2+ influx was observed; also recorded: influenced the time course of forskolin-induced Ca^2+ influx | 140 | No RO-20-1724- or rolipram-sensitive PDE was observed | also inhibited PDE activity; also recorded: increase forskolin-induced Ca^2+ influx through CNG channels | 200 | < 180 | 150 ± 20 |
